Series [1] can be described thus: Cmax in Wistar rat at 50 mg/kg, po administered as single dose measured after 1 to 24 hrs by reverse-phase HPLC method. The format is ADME, organism-based. The settings on record: in vivo. Also noted: dose 50 mg/kg, route oral.
A short description of series [2]: Tmax in Wistar rat at 50 mg/kg, po administered as single dose measured after 1 to 24 hrs by reverse-phase HPLC method. The format is ADME, organism-based. The settings on record: in vivo.
The nature of series [3]: Half life in Wistar rat at 50 mg/kg, po administered as single dose measured after 1 to 24 hrs by reverse-phase HPLC method. The settings on record: in vivo.
For series [4], the target named is Plasminogen activator inhibitor 1 (Homo sapiens, UniProt P05121). Put plainly: Inhibition of human PAI-1 assessed as remaining enzyme activity by measuring p-nitroaniline release pre-incubated for 15 mins before 9.8 nM human tPA substrate addition for 15 mins using 24.5 nM enzyme and chromogenic substrate S-2288 by spectrophotometry.

Results on four compounds are retold here after ChEMBL document CHEMBL4184220, “Identification of novel plasminogen activator inhibitor-1 inhibitors with improved oral bioavailability: Structure optimization of N-acylanthranilic acid derivatives” (Bioorg Med Chem Lett, 2018).

Some results are limits rather than exact numbers.

Chain of Plasminogen activator inhibitor 1 (P05121 whole entry): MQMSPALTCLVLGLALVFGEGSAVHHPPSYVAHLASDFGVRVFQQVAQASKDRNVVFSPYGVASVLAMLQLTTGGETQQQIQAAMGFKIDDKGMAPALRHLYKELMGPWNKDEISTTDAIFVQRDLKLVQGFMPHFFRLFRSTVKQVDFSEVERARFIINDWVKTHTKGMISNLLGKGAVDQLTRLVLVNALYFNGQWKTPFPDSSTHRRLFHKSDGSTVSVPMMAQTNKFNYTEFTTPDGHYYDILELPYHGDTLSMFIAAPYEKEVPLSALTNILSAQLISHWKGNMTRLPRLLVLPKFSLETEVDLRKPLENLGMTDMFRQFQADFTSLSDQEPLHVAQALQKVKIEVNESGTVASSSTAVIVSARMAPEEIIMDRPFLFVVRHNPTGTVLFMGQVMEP

For `O=C(COCC(=O)Nc1ccc(Cl)cc1C(=O)O)Nc1cccc(-c2ccncc2)c1`, the Cmax in series [1] was determined as 18 µM. In addition, the Tmax in series [2] came to 6 h. In addition, in series [3], the half-life is over 18 h.
Consider `O=C(COCC(=O)Nc1ccc(Cl)cc1C(=O)[O-])Nc1cccc(-c2ccccn2)c1.[Na+]`, for which the concentration in series [1] peaked (Cmax) at 136 µM. Moreover, the Tmax in series [2] worked out at 1 h. The compound further showed a half-life in series [3] of 2.4 h.
In series [1], `O=C(COCC(=O)N1CCN(C(c2ccccc2)c2ccccc2)CC1)Nc1ccc(Cl)cc1C(=O)O` yielded a Cmax of 34.2 µM. Further, in series [4], the IC50 is 7.94 µM. Further, in series [2], the Tmax was 2 h. Further, the half-life in series [3] was 2.5 h.
`Cn1cc(-c2cccc(NC(=O)COCC(=O)Nc3ccc(Cl)cc3C(=O)O)c2)cn1`: in series [1], the peak level (Cmax) was 20.5 µM. Besides, in series [2], the Tmax came to 2 h. In series [3], this compound gave a half-life of 9.9 h.

Usually Cmax stands for the maximum level reached in the sampled fluid or tissue. For orientation: Tmax means the time from dosing to the highest level. By half-life is commonly meant the time in which the quantity being followed falls by half. The low end stands for rapid decline, the high end for slow decline. For orientation: IC50 means the concentration that inhibits the measured activity by half.
